Laboratory results published in patent publication US8871252B2, “pH-responsive liposome” (Nanotheta Co, Ltd., priority 2009, dated 2014).

Columns and labels:
[1] = Release behavior of citric acid from liposomes in a weakly basic environment (pH meter); assay type: physicochemical; conditions: after pH of the mixture changed to 7.5 to 8.5 with sodium hydroxide
Description: The release behavior of citric acid from liposomes was studied in a weakly basic environment. First, to an aqueous liquid of citric acid having liposomes dispersed therein ([lipid]=250 μM, 4 mL) or an aqueous solution of citric acid (30 mM, pH 2.2, 4 mL), 2M aqueous sodium hydroxide (170 μL) was added to adjust the pH of the mixture to 6.5. Then, 300 mM aqueous sodium hydroxide (60 μL) was added to change the pH of the mixture to 7.5 to 8.5. The subsequent pH change behavior was monitored over time with a pH meter.

[2] = pH change behavior of citric acid-loaded liposomes added to aqueous sodium hydroxide; assay type: physicochemical; conditions: upon addition to 4 mL of 300 μM aqueous sodium hydroxide (pH 10.5)
Description: Each lipid mixture (20 mg) was hydrated in 20 mM citric acid (pH 2.2), and the dispersion was subjected to extrusion (final pore size: 0.22 μm) to prepare liposomes having a particle size of 200 to 300 nm. When required, pH change behavior was measured with a pH meter immediately after addition of the liposome dispersion ([lipid]=55 mg/mL, 10 μL) or citric acid (20 mM, 10 μL) to 4 mL of 300 μM aqueous sodium hydroxide (pH 10.5).

nearly constant pH reached [1]: ~7
pH reached (sudden decrease) [2]: 7.0
Compound: O=C(O)CC(O)(CC(=O)O)C(=O)O [citric acid]
